ChEMBL document CHEMBL3272236, “Synthesis and evaluation of 1,omega-diaryl-l,omega-alkanediamines related to the fibrinolytic bis(tetrahydroisoquinolines) and bis(benzylamines)” (1976)

system: Rattus norvegicus; test: Fibrinolytic activity in ip dosed rat assessed as blood clot lysis for 4 hrs; format: functional; details: not given

Compound	ED50
COc1ccc(C(N)CCCCCCCC2NCCc3cc(OC)c(OC)cc32)cc1OC.Cl (racemic; 31b)	0.5 mg/kg

same assay, conditions: Rattus norvegicus, Blood clot, ip, 4 h; read-out: ED50

Compound	ED50
COc1cc2c(cc1OC)C(CCCCC1NCCc3cc(OC)c(OC)cc31)NCC2.Cl (centres undefined)	0.3 mg/kg
COc1ccc2c(c1)CCNC2CCCCC1NCCc2cc(OC)ccc21.Cl (centres undefined)	2 mg/kg
COc1ccc2c(c1)CCNC2CCCCCCCC1NCCc2cc(OC)ccc21.Cl (centres undefined)	6 mg/kg
COc1ccc(C(N)CCCCC(N)c2ccc(OC)c(OC)c2)cc1OC.Cl (centres undefined)	0.4 mg/kg
COc1cc2c(cc1OC)C(CCCCC1NCCCc3cc(OC)c(OC)cc31)NCCC2.Cl (centres undefined)	0.7 mg/kg
COc1ccc2[nH]c3c(c2c1)CCNC3CCCCC1NCCc2c1[nH]c1ccc(OC)cc21.Cl (centres undefined)	6 mg/kg
COc1ccc2[nH]c3c(c2c1)CCNC3CCCCCCCC1NCCc2c1[nH]c1ccc(OC)cc21.Cl (centres undefined)	2 mg/kg
COc1ccc(C(N)CCCCC2NCCc3cc(OC)c(OC)cc32)cc1OC.Cl (centres undefined)	0.9 mg/kg
COc1ccc(C(N)CCCCCCC2NCCc3cc(OC)c(OC)cc32)cc1OC.Cl (centres undefined)	1 mg/kg
COc1ccc(CC(N)CCCCC(N)Cc2ccc(OC)c(OC)c2)cc1OC.Cl (centres undefined)	15 mg/kg
COc1cc(CCCCCCc2cc(OC)c(OC)cc2C(C)N)c(C(C)N)cc1OC.Cl (centres undefined)	4 mg/kg
COc1ccc(C(N)CCCCCCCC2NCCc3cc(OC)c(OC)cc32)cc1OC.Cl (racemic; 31a)	0.7 mg/kg
NCCc1c[nH]c2ccc(O)cc12 [SEROTONIN]	1 mg/kg
